Assay [1] relates to TNFα. As to the kind of experiment: cells. Type of assay: cell-based, human. The conditions noted are these: Homo sapiens, Monocyte, read-out: EC50 TNF.
The target of assay [2] is IRAK4 enzyme (Homo sapiens (Human), UniProt Q9NWZ3). In words: biochemical. Type of assay: biochemical.
The mark [3] stands for this setting: LPS-stimulated human monocytes, TNFα content.
Setting [4] is: IRAK4 enzyme, TR-FRET, 500 μM ATP.

The structures appear in SMILES notation. Where a name gives a salt, the structure may show the parent alone. Read-outs that look alike come from different tables or passages of the source.

IRAK4 enzyme, sequence (Q9NWZ3 whole entry): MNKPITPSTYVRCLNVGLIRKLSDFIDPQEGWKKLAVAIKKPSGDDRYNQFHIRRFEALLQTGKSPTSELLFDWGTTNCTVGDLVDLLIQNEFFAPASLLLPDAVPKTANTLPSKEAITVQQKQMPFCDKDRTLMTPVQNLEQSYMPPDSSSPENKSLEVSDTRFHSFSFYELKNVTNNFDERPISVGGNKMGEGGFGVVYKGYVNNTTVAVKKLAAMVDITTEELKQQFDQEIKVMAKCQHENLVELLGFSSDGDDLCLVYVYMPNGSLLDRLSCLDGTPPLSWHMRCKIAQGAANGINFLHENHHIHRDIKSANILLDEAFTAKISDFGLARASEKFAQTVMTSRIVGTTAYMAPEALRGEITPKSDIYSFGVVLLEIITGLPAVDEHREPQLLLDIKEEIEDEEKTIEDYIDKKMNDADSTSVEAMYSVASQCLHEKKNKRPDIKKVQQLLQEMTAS

For the compound `CC(C)(O)[C@H](F)CNC(=O)c1cnc(-c2ccc3cc(C#N)cnn23)cc1NC12CCC(NC(=O)C(F)(F)F)(CC1)CC2` [Example 295, (R)-6-(3-cyanopyrrolo[1,2-b]pyridazin-7-yl)-N-(2-fluoro-3-hydroxy-3-methyl-butyl)-4-((4-(2,2,2-trifluoro-acetamido)bicyclo[2.2.2]octan-1-yl)amino) nicotinamide], the EC50 (in general, the concentration giving half of the maximal effect) in assay [1] (setting [3]) was determined as 38 nM. For the same compound, half-maximal inhibition in assay [2] (setting [4]) (IC50) was put at 1 nM.
The like results for `CC(C)(C)C(=O)N[C@H]1CC[C@H](Nc2cc(-c3ccc4cc(C#N)cnn34)ncc2C(=O)NC[C@@H](F)C(C)(C)O)CC1` [Example 296, 6-(3-cyanopyrrolo[1,2-b]pyridazin-7-yl)-N-((R)-2-fluoro-3-hydroxy-3-methylbutyl)-4-(((1r,4R)-4-pivalamidocyclohexyl)amino)nicotinamide] were, in that order, 391 nM and 3 nM.
Consider `CC(C)(O)[C@H](F)CNC(=O)c1cnc(-c2ccc3cc(C#N)cnn23)cc1N[C@H]1CC[C@H](NC(=O)C2CC2)CC1` [Example 297, 6-(3-cyanopyrrolo[1,2-b]pyridazin-7-yl)-4-(((1r,4R)-4-(cyclopropanecarbox-amido)cyclohexyl)amino)-N-((R)-2-fluoro-3-hydroxy-3-methylbutyl) nicotinamide], for which, in assay [1] (setting [3]), the EC50 worked out at 80 nM. Further, the IC50 (as a rule, the midpoint of a concentration-inhibition curve) in assay [2] (setting [4]) was 1 nM.
The like results for `CC(C)C(=O)N[C@H]1CC[C@H](Nc2cc(-c3ccc4cc(C#N)cnn34)ncc2C(=O)NC[C@@H](F)C(C)(C)O)CC1` [Example 298, 6-(3-cyanopyrrolo[1,2-b]pyridazin-7-yl)-N-((R)-2-fluoro-3-hydroxy-3-methylbutyl)-4-(((1r,4R)-4-isobutyramidocyclohexyl)amino)nicotinamide] were, in that order, 214 nM and 2 nM.
The like results for `CCC(=O)N[C@H]1CC[C@H](Nc2cc(-c3ccc4cc(C#N)cnn34)ncc2C(=O)NC[C@@H](F)C(C)(C)O)CC1` [Example 299, 6-(3-cyanopyrrolo[1,2-b]pyridazin-7-yl)-N-((R)-2-fluoro-3-hydroxy-3-methyl-butyl)-4-(((1r,4R)-4-propionamidocyclohexyl)amino)nicotinamide] were, in that order, 128 nM and 1 nM.
The matching figures for `COC(=O)NC1CCC(NC(=O)c2cnc(-c3ccc4cc(C#N)cnn34)cc2N[C@H]2CC[C@H](NC(=O)OC)CC2)CC1` (stereo partly drawn) [Example 300, methyl ((1R,4r)-4-(6-(3-cyanopyrrolo[1,2-b]pyridazin-7-yl)-4-(((1r,4R)-4-((methoxycarbonyl)amino)cyclohexyl)amino)nicotinamido)cyclohexyl) carbamate]: 75 nM and 1 nM.
As for `CC(=O)NC1CCC(NC(=O)c2cnc(-c3ccc4cc(C#N)cnn34)cc2N[C@H]2CC[C@H](NC(C)=O)CC2)CC1` (stereo partly drawn) [Example 301, N-((1s,4S)-4-acetamidocyclohexyl)-4-(((1r,4R)-4-acetamidocyclohexyl)amino)-6-(3-cyanopyrrolo[1,2-b]pyridazin-7-yl)nicotinamide], the half-maximal effective concentration (EC50) in assay [1] (setting [3]) was 1410 nM. In assay [2] (setting [4]), this compound showed an IC50 of 2 nM.
The like results for `CC(C)(O)[C@H](F)CNC(=O)c1cnc(-c2ccc3cc(C#N)cnn23)cc1NC1CC1CO` (stereo partly drawn) [Example 303, 6-(3-cyanopyrrolo[1,2-b]pyridazin-7-yl)-N-((R)-2-fluoro-3-hydroxy-3-methylbutyl)-4-((2-(hydroxymethyl)cyclopropyl)amino)nicotinamide] were, in that order, 26 nM and less than 1 nM.
For `CC(C)(C)OC(=O)NC12CCC(Nc3cc(-c4ccc5cc(C#N)cnn45)ncc3C(=O)NC[C@@H](F)C(C)(C)O)(CC1)CC2` [Example 304, (R)-tert-butyl (4-((2-(3-cyanopyrrolo[1,2-b]pyridazin-7-yl)-5-((2-fluoro-3-hydroxy-3-methylbutyl)carbamoyl)pyridin-4yl)amino)bicyclo[2.2.2]octan-1-yl)carbamate], in assay [1] (setting [3]), the EC50 was found to be 677 nM. The compound also returned an IC50 in assay [2] (setting [4]) of 4 nM.
The matching figures for `CC(C)(C)OC(=O)N[C@H]1CC[C@H](Nc2cc(-c3ccc4cc(C#N)cnn34)ncc2C(=O)NC[C@@H](F)C(C)(C)O)CC1` [Example 305, tert-butyl ((1R,4r)-4-((2-(3-cyanopyrrolo[1,2-b]pyridazin-7-yl-5-(((R)-2-fluoro-3-hydroxy-3-methylbutyl)carbamoyl)pyridin-4-yl)amino)cyclohexyl) carbamate]: 337 nM and 1 nM.
The matching figures for `CC(=O)N[C@@H]1CC[C@@H](Nc2cc(-c3ccc4cc(C#N)cnn34)ncc2C(=O)NC[C@@H](F)C(C)(C)O)C1` [Example 306, 4-(((1R,3R)-3-acetamidocyclopentyl)amino)-6-(3-cyano-pyrrolo[1,2-b]pyridazin-7-yl)-N-((R)-2-fluoro-3-hydroxy-3-methylbutyl) nicotinamide]: 453 nM and 3 nM.
The matching figures for `CC(=O)N[C@H]1CC[C@@H](Nc2cc(-c3ccc4cc(C#N)cnn34)ncc2C(=O)NC[C@@H](F)C(C)(C)O)C1` [Example 307, 4-(((1R,3S)-3-acetamidocyclopentyl)amino)-6-(3-cyano-pyrrolo[1,2-b]pyridazin-7-yl)-N-((R)-2-fluoro-3-hydroxy-3-methylbutyl) nicotinamide]: 320 nM and 2 nM.
With `CC(C)(O)[C@H](F)CNC(=O)c1cnc(-c2ccc3cc(C#N)cnn23)cc1N[C@@H]1CC[C@@H](N)C1` [Example 308, 4-(((1R,3R)-3-aminocyclopentyl)amino)-6-(3-cyano-pyrrolo[1,2-b]pyridazin-7-yl)-N-((R)-2-fluoro-3-hydroxy-3-methylbutyl) nicotinamide], the EC50 in assay [1] (setting [3]) was determined as 46 nM. The IC50 in assay [2] (setting [4]) is less than 1 nM.
For `CC(C)(O)[C@H](F)CNC(=O)c1cnc(-c2ccc3cc(C#N)cnn23)cc1N[C@@H]1CC[C@H](N)C1` [Example 309, 4-(((1R,3S)-3-aminocyclopentyl)amino)-6-(3-cyanopyrrolo[1,2-b]pyridazin-7-yl)-N-((R)-2-fluoro-3-hydroxy-3-methylbutyl)nicotinamide], the EC50 in assay [1] (setting [3]) is 623 nM. This compound displayed an IC50 in assay [2] (setting [4]) of 2 nM.
The matching figures for `CC(C)(O)[C@H](F)CNC(=O)c1cnc(-c2ccc3cc(C#N)cnn23)cc1N[C@H]1CC[C@@H](N)C1` [Example 310, 4-(((1S,3R)-3-aminocyclopentyl)amino)-6-(3-cyanopyrrolo[1,2-b]pyridazin-7-yl)-N-((R)-2-fluoro-3-hydroxy-3-methylbutyl)nicotinamide]: 362 nM and 2 nM.
The like results for `COC(=O)NC12CCC(Nc3cc(-c4ccc5cc(C#N)cnn45)ncc3C(=O)NC[C@@H](F)C(C)(C)O)(CC1)CC2` [Example 311, (R)-methyl (4-((2-(3-cyano-pyrrolo[1,2-b]pyridazin-7-yl)-5-((2-fluoro-3-hydroxy-3-methylbutyl)carbamoyl)pyridin-4-yl)amino)bicyclo[2.2.2]octan-1-yl)carbamate] were, in that order, 15 nM and less than 1 nM.
The matching figures for `CC(=O)N[C@@H]1CC[C@H](Nc2cc(-c3ccc4cc(C#N)cnn34)ncc2C(=O)NC[C@@H](F)C(C)(C)O)C1` [Example 312, 4-(((1S,3R)-3-acetamidocyclopentyl)amino)-6-(3-cyano-pyrrolo[1,2-b]pyridazin-7-yl)-N-((R)-2-fluoro-3-hydroxy-3-methylbutyl) nicotinamide]: 198 nM and 2 nM.
Consider `CC(C)(O)[C@H](F)CNC(=O)c1cnc(-c2ccc3cc(C#N)cnn23)cc1N[C@H]1CC[C@H](NC(=O)C(F)(F)F)CC1` [Example 313, 6-(3-cyanopyrrolo[1,2-b]pyridazin-7-yl)-N-((R)-2-fluoro-3-hydroxy-3-methylbutyl)-4-(((1r,4R)-4-(2,2,2-trifluoroacetamido)cyclohexyl)amino) nicotinamide], for which the EC50 in assay [1] (setting [3]) worked out at 37 nM. In addition, in assay [2] (setting [4]), the IC50 stood at 1 nM.
The matching figures for `COC(=O)N[C@H]1CC[C@H](Nc2cc(-c3ccc4cc(C#N)cnn34)ncc2C(=O)NC[C@@H](F)C(C)(C)O)CC1` [Example 314, methyl ((1R,4r)-4-((2-(3-cyanopyrrolo[1,2-b]pyridazin-7-yl)-5-(((R)-2-fluoro-3-hydroxy-3-methylbutyl)carbamoyl)pyridin-4-yl)amino)cyclo-hexyl)carbamate]: 20 nM and less than 1 nM.
The like results for `CC(C)(O)[C@H](F)CNC(=O)c1cnc(-c2ccc3cc(C#N)cnn23)cc1N[C@H]1CC[C@H](NS(C)(=O)=O)CC1` [Example 315, 6-(3-cyanopyrrolo[1,2-b]pyridazin-7-yl)-N-((R)-2-fluoro-3-hydroxy-3-methylbutyl)-4-(((1r,4R)-4-(methylsulfonamido)cyclohexyl)amino)nicotinamide] were, in that order, 59 nM and less than 1 nM.
As for `CC(C)(O)[C@H](F)CNC(=O)c1cnc(-c2ccc3cc(C#N)cnn23)cc1N[C@H]1CC[C@H](N)CC1` [Example 316, 4-(((1r,4R)-4-aminocyclohexyl)amino)-6-(3-cyanopyrrolo[1,2-b]pyridazin-7-yl)-N-((R)-2-fluoro-3-hydroxy-3-methylbutyl)nicotinamide hydrochloride], the EC50 in assay [1] stood at 136 nM. Moreover, the IC50 in assay [2] was less than 1 nM.
On to `CC(=O)NC12CCC(Nc3cc(-c4ccc5cc(C#N)cnn45)ncc3C(=O)NC[C@@H](F)C(C)(C)O)(CC1)CC2` [Example 317, (R)-4-((4-acetamido-bicyclo[2.2.2]octan-1-yl)amino)-6-(3-cyano-pyrrolo[1,2-b]pyridazin-7-yl)-N-(2-fluoro-3-hydroxy-3-methylbutyl) nicotinamide], for which the EC50 in assay [1] (setting [3]) was determined as 11 nM. This compound also showed an IC50 in assay [2] (setting [4]) of less than 1 nM.
The matching figures for `CC(C)(O)[C@H](F)CNC(=O)c1cnc(-c2ccc3cc(C#N)cnn23)cc1NC12CCC(N)(CC1)CC2` [Example 318, (R)-4-((4-amino-bicyclo[2.2.2]octan-1-yl)amino)-6-(3-cyano-pyrrolo[1,2-b]pyridazin-7-yl)-N-(2-fluoro-3-hydroxy-3-methylbutyl)nicotinamide]: 23 nM and less than 1 nM.

For the origin of these results see patent publication US10336762B2 (priority 2017, dated 2019).
